Each block holds one compound with its values, some of them ahead of it. Calls of active or inactive are those of the source. For most assays here, no stated cut-off is given here; in the data, actives have a measured IC50 and inactives only a lower limit.
Columns and labels:
[1] = target: T1, Carboxy-terminal domain RNA polymerase II polypeptide A small phosphatase 1 (Homo sapiens, UniProt Q9GZU7); test: inhibitors of CTDSP1, concentration-response testing, biochemical assay, absorbance-based, actives from ultra-high-throughput screening (AID 540297); format: functional
T1 sequence (Q9GZU7 whole entry): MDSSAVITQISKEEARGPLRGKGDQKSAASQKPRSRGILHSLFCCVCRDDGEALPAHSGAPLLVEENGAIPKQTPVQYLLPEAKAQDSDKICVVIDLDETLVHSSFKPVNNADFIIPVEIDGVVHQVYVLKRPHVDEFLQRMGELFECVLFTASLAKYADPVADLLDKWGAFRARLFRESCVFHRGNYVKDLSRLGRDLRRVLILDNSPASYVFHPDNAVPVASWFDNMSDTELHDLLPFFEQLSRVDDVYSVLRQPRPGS

[2] = target: 26S proteasome non-ATPase regulatory subunit 14 (Homo sapiens, UniProt O00487); test: inhibition of proteasome subunit RPN11 – biochemical, fluorescence polarization, uHTS hits, confirmation (AID 602368); format: functional
[3] = target: 72 kDa type IV collagenase (Homo sapiens, UniProt P08253); test: Dose Response validation of uHTS RPN11 inhibitor hits using a MMP-2 Fluorescence assay.; format: functional
Prothrombin = Prothrombin (Bos taurus, UniProt P00735); test: thrombin inhibition, dose response, biochemical, fluorescence polarization, uHTS hits (AID 602369); format: functional
[4] = target: T2, Sentrin-specific protease 8 (Homo sapiens, UniProt Q96LD8); test: SENP8 protease inhibitors, SAR follow-up, biochemical, luminescence (AID 504501); format: functional
T2 sequence (Q96LD8 whole entry): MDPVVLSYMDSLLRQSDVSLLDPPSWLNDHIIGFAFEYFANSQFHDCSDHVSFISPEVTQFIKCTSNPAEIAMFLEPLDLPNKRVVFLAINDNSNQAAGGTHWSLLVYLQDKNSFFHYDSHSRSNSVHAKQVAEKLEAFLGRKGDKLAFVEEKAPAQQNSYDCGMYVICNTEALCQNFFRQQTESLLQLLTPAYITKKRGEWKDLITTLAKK

Caspase-3 = target: T3, Caspase-3 (Homo sapiens, UniProt P42574); test: SAR Analysis of small molecule inhibitors of Sentrin-specific proteases (SENPs) using a Caspase-3 Selectivity assay. [Related pubchem assays (depositor defined):AID2540, AID2599, AID434973, AID489001]; format: functional
T3 sequence (P42574 whole entry): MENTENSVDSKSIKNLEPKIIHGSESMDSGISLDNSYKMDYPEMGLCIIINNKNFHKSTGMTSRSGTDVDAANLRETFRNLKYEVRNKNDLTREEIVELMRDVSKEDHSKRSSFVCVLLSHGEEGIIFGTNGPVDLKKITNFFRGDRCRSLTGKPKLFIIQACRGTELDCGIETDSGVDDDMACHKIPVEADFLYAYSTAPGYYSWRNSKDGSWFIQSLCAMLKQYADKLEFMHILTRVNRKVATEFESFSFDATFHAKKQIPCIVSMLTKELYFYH

[5] = target: T4, Sentrin-specific protease 6 (Homo sapiens, UniProt Q9GZR1); test: SAR Analysis of small molecule inhibitors of Sentrin-specific protease 6 (SENP6) using a Luminescent assay. [Related pubchem assays (depositor defined):AID2582, AID2599]; format: functional
T4 sequence (Q9GZR1 whole entry): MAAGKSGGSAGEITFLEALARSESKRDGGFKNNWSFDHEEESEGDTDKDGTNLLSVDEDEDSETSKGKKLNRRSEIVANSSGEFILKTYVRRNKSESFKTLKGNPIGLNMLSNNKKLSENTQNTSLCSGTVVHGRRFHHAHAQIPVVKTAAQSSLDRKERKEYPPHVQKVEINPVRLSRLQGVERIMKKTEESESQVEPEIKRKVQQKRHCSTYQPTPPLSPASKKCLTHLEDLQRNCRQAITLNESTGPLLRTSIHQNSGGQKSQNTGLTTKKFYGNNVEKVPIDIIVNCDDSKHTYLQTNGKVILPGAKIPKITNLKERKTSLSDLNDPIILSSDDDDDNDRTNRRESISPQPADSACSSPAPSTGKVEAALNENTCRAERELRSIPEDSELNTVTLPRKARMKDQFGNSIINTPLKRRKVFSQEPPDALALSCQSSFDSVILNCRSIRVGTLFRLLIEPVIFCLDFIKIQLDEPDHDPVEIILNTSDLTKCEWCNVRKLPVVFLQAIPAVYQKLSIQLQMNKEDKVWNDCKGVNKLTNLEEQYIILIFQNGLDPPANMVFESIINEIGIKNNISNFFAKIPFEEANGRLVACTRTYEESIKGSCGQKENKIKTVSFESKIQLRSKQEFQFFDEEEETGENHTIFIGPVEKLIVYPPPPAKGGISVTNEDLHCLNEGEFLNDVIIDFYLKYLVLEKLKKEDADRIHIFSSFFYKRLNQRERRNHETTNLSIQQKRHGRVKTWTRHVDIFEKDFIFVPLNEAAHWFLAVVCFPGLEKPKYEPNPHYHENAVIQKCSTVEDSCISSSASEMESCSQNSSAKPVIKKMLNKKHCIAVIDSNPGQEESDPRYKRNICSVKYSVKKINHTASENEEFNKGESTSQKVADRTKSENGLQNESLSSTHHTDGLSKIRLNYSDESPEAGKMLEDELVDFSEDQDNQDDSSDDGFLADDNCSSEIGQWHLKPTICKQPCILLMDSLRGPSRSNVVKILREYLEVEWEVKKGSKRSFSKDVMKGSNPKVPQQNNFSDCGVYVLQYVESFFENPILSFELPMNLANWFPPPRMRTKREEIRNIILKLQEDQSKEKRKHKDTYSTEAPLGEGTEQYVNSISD

[6] = target: T5, Sentrin-specific protease 7 (Homo sapiens, UniProt Q9BQF6); test: SENP7 protease inhibitors, SAR follow-up, biochemical, luminescence (AID 504497); format: functional
T5 sequence (Q9BQF6 whole entry): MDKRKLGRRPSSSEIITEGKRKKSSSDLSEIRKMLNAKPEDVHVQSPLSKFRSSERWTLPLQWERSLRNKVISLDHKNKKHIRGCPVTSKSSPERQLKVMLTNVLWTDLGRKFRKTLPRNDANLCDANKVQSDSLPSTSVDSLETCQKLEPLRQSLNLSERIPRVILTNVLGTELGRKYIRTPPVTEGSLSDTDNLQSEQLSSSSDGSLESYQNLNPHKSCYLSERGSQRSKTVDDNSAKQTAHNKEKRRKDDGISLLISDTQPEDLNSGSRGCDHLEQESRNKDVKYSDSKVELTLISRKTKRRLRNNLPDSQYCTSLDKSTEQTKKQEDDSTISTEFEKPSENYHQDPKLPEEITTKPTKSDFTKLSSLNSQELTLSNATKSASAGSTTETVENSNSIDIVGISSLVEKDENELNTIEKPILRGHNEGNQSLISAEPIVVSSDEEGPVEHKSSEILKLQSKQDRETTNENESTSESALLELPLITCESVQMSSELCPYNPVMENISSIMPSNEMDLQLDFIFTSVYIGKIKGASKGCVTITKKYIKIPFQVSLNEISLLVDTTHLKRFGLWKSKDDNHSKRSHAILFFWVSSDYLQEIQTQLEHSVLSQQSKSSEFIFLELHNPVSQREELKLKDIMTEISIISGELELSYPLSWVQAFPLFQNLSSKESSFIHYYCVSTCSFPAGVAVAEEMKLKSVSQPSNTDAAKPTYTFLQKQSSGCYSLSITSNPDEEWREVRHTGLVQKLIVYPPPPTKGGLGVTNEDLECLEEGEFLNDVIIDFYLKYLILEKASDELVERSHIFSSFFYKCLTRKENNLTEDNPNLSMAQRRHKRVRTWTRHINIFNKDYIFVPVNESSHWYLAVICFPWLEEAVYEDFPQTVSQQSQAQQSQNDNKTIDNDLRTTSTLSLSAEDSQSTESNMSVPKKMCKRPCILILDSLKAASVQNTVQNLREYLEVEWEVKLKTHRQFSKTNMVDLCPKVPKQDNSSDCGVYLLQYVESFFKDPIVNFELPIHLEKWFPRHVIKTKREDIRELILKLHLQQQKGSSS

HEK293 = test: inhibitors of LMP1-driven NF-kB reporter, dose response, cell-based, HEK293, luciferase, cherry-pick (AID 588343); format: functional; conditions: Homo sapiens
[7] = target: T6, Corticotropin-releasing factor receptor 2/Corticotropin-releasing factor-binding protein (Homo sapiens, UniProt P24387+Q13324); test: Dose Response confirmation of uHTS hits for small molecule antagonists of the CRF-binding protein and CRF-R2 receptor complex.; format: functional; conditions: read-out: IC50_Mean
T6 sequence (Q13324 whole entry): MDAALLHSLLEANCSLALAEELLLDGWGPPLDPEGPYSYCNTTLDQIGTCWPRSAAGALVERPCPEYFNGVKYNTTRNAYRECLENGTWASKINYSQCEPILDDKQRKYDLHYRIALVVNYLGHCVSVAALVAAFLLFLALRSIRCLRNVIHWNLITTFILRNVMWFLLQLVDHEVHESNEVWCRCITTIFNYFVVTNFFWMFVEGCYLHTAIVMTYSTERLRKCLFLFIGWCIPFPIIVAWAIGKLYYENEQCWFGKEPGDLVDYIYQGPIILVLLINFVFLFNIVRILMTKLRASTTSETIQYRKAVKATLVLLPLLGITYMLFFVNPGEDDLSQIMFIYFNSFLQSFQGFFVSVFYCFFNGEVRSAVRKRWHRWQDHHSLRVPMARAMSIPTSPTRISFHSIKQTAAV
T6 sequence (P24387 whole entry): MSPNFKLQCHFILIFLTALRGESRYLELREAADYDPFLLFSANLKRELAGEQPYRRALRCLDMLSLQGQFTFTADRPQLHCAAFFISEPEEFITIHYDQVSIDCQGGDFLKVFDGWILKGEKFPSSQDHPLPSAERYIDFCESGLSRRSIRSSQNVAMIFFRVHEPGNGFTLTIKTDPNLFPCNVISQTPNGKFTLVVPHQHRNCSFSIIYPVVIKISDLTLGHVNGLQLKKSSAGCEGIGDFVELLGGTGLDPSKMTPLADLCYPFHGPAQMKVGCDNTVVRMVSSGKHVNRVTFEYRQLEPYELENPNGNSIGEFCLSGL

[8] = target: T6, Corticotropin-releasing factor receptor 2/Corticotropin-releasing factor-binding protein; test: activators of CRF receptor 2 with binding protein – uHTS hits, confirmation (AID 602473); format: functional; conditions: read-out: EC50_Mean
Exodeoxyribonuclease V = Exodeoxyribonuclease V (Escherichia coli (strain K12), UniProt P04993+P07648+P08394); test: E. coli RecBCD inhibitors, dose response, counter-screen for AddAB inhibitor project, absorbance, V66 E. coli, mutant T4 phage (AID 492957); format: functional, cell-based, Escherichia coli str. K-12 substr. MG1655
[9] = Counterscreen for AddAB inhibitors: absorbance-based bacterial cell-based high throughput dose response assay for inhibitors of bacterial viability. [Related pubchem assays (depositor defined):AID435030, AID449728, AID449731, AID488942, AID488955, AID488956]; format: functional
[10] = target: Beta-2 adrenergic receptor (Homo sapiens, UniProt P07550); test: beta2AR agonists driving receptor internalization, dose response, cell-based, FAP fluorogen, flow cytometry, cherry pick 1 (AID 588763); format: functional
Beta-2 adrenergic receptor, sequence (P07550 whole entry): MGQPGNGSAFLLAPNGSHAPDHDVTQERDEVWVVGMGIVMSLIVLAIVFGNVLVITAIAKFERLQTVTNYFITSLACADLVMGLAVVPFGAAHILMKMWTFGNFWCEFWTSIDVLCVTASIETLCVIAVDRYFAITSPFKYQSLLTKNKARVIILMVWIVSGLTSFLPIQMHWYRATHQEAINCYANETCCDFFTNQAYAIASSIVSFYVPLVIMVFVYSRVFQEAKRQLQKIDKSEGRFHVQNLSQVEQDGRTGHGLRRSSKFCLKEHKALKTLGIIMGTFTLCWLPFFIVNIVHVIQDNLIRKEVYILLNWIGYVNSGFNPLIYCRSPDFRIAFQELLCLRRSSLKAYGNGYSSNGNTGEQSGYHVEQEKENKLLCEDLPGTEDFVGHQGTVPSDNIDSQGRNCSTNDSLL

26S proteasome non-ATPase regulatory subunit 14, sequence (O00487 whole entry): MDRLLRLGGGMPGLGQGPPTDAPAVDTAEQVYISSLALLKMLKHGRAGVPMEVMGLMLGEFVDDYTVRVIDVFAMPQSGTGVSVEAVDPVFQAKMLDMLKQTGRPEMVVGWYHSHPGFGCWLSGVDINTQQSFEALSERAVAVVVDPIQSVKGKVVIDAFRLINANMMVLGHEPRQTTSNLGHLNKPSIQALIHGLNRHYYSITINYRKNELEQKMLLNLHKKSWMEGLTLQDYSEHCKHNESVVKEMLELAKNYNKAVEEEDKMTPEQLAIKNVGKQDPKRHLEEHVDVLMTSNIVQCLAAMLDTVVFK
Exodeoxyribonuclease V, sequence (P04993 whole entry): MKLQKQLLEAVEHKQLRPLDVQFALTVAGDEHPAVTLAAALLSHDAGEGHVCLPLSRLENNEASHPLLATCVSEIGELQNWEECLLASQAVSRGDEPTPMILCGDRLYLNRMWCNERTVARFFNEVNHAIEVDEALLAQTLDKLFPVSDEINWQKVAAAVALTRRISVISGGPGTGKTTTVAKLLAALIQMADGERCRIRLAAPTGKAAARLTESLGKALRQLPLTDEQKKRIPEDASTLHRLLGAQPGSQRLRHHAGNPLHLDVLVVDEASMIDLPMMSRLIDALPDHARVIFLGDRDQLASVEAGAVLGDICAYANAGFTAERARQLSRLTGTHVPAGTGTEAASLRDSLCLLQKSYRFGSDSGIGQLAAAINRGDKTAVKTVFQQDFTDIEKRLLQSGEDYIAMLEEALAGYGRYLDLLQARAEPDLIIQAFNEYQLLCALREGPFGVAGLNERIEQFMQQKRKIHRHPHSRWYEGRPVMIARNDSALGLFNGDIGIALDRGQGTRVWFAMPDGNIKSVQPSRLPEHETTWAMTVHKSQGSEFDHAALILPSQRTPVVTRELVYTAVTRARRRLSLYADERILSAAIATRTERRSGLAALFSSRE
Exodeoxyribonuclease V, sequence (P07648 whole entry): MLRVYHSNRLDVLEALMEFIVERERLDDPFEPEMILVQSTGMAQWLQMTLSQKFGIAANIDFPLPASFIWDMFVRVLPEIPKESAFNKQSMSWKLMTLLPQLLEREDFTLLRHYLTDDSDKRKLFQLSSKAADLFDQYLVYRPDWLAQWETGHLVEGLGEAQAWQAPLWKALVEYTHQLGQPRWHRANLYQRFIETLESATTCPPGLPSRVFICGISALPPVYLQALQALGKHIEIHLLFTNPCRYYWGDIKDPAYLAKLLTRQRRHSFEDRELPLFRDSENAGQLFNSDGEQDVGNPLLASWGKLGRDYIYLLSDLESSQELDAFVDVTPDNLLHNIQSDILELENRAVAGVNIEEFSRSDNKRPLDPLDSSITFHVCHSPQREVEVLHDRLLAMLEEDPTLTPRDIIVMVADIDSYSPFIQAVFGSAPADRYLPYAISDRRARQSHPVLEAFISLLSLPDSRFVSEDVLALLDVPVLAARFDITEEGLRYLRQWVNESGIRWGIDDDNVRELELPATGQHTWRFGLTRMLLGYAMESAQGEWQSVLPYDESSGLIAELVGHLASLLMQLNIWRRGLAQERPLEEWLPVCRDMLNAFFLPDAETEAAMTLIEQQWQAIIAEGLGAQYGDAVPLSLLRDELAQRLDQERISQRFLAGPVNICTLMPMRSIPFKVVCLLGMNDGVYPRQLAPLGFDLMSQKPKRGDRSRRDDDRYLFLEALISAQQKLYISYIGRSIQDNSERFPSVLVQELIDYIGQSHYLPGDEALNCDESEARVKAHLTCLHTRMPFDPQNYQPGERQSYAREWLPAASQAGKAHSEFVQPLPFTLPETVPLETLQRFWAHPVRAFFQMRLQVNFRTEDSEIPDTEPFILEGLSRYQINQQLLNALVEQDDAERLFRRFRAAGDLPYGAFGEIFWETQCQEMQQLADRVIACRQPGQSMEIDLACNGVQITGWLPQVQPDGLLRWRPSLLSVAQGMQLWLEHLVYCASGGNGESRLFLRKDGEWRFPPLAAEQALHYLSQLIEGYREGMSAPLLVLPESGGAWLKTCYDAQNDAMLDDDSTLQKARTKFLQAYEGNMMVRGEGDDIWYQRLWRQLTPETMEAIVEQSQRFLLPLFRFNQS
Exodeoxyribonuclease V, sequence (P08394 whole entry): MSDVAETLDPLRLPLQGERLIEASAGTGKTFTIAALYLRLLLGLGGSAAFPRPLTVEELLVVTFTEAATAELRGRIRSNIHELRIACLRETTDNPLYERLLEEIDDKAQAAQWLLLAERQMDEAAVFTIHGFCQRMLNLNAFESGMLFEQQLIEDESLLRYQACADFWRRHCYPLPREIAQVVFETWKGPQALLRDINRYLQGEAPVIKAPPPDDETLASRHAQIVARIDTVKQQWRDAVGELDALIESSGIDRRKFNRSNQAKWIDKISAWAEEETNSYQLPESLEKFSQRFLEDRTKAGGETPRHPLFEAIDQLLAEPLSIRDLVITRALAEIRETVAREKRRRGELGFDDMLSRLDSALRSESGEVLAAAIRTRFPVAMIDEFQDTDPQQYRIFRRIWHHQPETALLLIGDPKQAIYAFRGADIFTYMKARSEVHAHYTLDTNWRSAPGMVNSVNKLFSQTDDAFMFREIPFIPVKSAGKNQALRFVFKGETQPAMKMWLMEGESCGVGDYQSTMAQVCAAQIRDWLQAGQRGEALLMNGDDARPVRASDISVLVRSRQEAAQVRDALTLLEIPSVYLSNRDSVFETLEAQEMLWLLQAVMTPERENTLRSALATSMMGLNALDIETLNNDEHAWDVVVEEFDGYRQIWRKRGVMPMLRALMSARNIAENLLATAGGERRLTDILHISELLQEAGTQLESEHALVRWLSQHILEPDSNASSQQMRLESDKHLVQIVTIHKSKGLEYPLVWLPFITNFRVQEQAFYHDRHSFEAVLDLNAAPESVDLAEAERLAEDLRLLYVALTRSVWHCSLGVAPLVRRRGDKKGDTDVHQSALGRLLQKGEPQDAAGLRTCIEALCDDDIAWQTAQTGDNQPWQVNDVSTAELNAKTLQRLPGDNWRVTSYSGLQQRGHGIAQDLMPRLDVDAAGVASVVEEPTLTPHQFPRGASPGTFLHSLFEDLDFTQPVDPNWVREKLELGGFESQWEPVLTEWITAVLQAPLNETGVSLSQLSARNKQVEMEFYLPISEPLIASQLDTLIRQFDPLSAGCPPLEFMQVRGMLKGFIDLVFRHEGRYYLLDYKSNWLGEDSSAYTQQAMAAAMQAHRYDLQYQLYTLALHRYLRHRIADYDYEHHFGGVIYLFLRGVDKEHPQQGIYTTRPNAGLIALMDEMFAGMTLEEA
72 kDa type IV collagenase, sequence (P08253 whole entry): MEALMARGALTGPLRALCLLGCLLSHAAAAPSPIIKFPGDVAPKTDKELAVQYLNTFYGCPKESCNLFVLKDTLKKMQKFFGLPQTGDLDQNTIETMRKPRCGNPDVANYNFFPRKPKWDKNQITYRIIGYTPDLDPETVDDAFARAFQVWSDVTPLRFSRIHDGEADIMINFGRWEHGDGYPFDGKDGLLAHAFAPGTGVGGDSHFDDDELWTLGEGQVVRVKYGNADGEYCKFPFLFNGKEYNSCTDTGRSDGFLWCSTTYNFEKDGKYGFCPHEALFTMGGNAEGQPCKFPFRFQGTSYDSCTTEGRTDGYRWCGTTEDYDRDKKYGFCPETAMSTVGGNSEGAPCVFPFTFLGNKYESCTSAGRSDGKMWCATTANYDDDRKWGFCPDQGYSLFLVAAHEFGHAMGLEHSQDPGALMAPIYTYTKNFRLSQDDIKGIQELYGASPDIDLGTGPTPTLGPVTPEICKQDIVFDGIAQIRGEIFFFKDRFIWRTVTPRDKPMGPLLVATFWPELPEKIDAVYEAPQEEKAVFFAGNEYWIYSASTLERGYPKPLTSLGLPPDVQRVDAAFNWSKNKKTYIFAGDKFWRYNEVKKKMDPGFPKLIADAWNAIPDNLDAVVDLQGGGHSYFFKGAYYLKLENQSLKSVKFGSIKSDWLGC

IC50 [1]: 18.5 µM (active)
IC50 [2]: 24.8 µM (active)
IC50 [3]: > 100 µM (inactive)
IC50 (Prothrombin): 71.3 µM (active)
SMILES: O=C(NNc1ncnc2ccccc12)c1cccc(Cl)c1

IC50 (Caspase-3): > 99 µM (inactive)
IC50 [5]: > 99 µM (inactive)
IC50 [6]: > 99 µM (inactive)
SMILES: COc1ccc(OC)c2sc(NC(=O)c3ccc(Br)s3)nc12
IC50 [4]: > 99 µM (inactive)

SMILES: COc1ccc(C(=O)Nn2c(SCC(=O)NC3CCCCC3)nc3ccccc3c2=O)cc1
AC50 (HEK293): 6.79 µM (active)
IC50 [7]: < 0.368 µM (active)
EC50 [8]: > 53 µM (inactive)

SMILES: CCOC(=O)c1cn(C2CC2)c2c(F)c(NCCCN(C)C)c(F)cc2c1=O
IC50 (Exodeoxyribonuclease V): > 119 µM (inactive)
IC50 [9]: 75.9 µM (inactive)
EC50 [10]: 0.353 µM (active)
